Source: paper PMC4167603 (Nature, 2014)
Values belong to the compound of their own block, whether it stands above or below them.

Tests used:
[1] = target: T1, GABAAR β3 homopentamer (GABAAR-β3cryst) (Homo sapiens, UniProt P28472, DEL333-446/INS332SQPARAA); experiment: thermostabilisation of purified receptor; assay type: binding
T1 sequence (P28472 with tags, fused parts or gaps INS332SQPARAA): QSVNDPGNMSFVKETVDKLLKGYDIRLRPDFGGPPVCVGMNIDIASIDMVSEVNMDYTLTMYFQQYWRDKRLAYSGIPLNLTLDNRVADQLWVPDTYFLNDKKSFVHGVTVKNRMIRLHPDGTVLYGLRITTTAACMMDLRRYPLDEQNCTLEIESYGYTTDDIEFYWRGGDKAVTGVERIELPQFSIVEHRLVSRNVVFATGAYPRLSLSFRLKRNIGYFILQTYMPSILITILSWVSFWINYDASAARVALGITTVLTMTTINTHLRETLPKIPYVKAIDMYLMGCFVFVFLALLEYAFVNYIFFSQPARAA
T1 sequence (P28472 447-473): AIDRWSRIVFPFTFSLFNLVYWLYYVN

[2] = target: T1, GABAAR β3 homopentamer (GABAAR-β3cryst); experiment: thermostabilisation of purified receptor; assay type: binding; remark: listed apart in the source
[3] = target: T1, GABAAR β3 homopentamer (GABAAR-β3cryst); experiment: X-ray co-crystal structure; assay type: cell-based

Structure (SMILES): N#Cc1nn(-c2c(Cl)cc(C(F)(F)F)cc2Cl)c(N)c1[S+]([O-])C(F)(F)F (stereo not drawn) [fipronil]
EC50 [1]: 26 ± 5 nM

EC50 [2]: 400 ± 150 µM
Structure (SMILES): NCCc1c[nH]cn1 [histamine]

EC50 [3]: 61 ± 12 µM
Structure (SMILES): N=C(N)c1ccccc1 [benzamidine]
